Data: ChEMBL document CHEMBL4665685, “Neuroprotective Effects of Triterpenoids from Camellia japonica against Amyloid β-Induced Neuronal Damage” (J Nat Prod, 2020)
Active and inactive are the calls of the source. The rule behind the calls is not given here.

What was measured:
HT-22 [1] = experiment: Neuroprotective activity against amyloid beta (1 to 42 residues)-induced cell death in mouse HT22 cells assessed as increase in cell viability at 20 uM after 24 hrs by MTT assay (reference value: 51.2%); type: functional
HT-22 [2] = experiment: Neuroprotective activity against amyloid beta (1 to 42 residues)-induced cell death in mouse HT22 cells assessed as increase in cell viability at 1 uM after 24 hrs by MTT assay (reference value: 51.2%); type: functional
HT-22 [3] = experiment: Neuroprotective activity against amyloid beta (1 to 42 residues)-induced cell death in mouse HT22 cells assessed as increase in cell viability at 5 uM after 24 hrs by MTT assay (reference value: 51.2%); type: functional
HT-22 [4] = experiment: Cytotoxicity against mouse HT-22 cells assessed as reduction in cell viability at 40 uM after 24 hrs by MTT assay; type: cell-based; conditions: ht-22, 24 h
HT-22 [5] = experiment: Neuroprotective activity against amyloid beta (1 to 42) transfected mouse HT-22 cells assessed as protection against amyloid-induced inflammation at 40 uM after 24 hrs by MTT assay; type: functional, cell-based
[6] = target: Beta-secretase 1 (Homo sapiens) (UniProt P56817); experiment: Inhibition of BACE1 (unknown origin) at 20 uM measured after 60 mins by FRET assay relative to control
Chain of Beta-secretase 1 (Homo sapiens) (P56817 whole entry, the tested form may be a part): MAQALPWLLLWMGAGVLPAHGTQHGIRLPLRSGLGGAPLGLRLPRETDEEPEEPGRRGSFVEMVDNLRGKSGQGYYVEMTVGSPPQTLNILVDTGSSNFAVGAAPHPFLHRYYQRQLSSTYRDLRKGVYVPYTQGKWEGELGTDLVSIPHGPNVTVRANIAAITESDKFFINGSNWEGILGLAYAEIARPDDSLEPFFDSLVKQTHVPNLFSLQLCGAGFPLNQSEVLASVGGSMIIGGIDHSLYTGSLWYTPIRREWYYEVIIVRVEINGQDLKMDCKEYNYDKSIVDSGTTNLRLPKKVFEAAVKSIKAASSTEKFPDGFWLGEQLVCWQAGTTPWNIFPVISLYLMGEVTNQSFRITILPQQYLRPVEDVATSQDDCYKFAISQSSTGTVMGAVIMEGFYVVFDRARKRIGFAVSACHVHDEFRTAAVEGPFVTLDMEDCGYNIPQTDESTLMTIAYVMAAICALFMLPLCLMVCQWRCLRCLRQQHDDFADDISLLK

[7] = target: Beta-secretase 1 (Homo sapiens) (UniProt P56817); experiment: Inhibition of BACE1 (unknown origin) at 10 uM measured after 60 mins by FRET assay
HT-22 [8] = experiment: Neuroprotective activity in mouse HT-22 cells assessed as reduction in amyloid beta (1 to 42 residues)-induced glutamate level at 40 uM after 24 hrs by fluorescence assay (reference value: 3.17); type: functional
HT-22 [9] = experiment: Neuroprotective activity against glutamate-induced cell death in mouse HT22 cells assessed as increase in cell viability at 40 uM preincubated for 6 hrs followed by glutamate-challenge and measured after 16 hrs by MTT assay relative to control; type: functional
BV-2 [10] = experiment: Cytotoxicity against mouse BV2 cells assessed as reduction in cell viability at 40 uM after 18 hrs by MTT assay; type: cell-based; conditions: bv-2, 18 h
BV-2 [11] = experiment: Anti-neuroinflammatory activity in mouse BV-2 cells assessed as reduction in amyloid beta (1 to 42 residues)-induced nitric oxide at 40 uM after 18 hrs; type: functional, cell-based
HT-22 [12] = experiment: Neuroprotective activity against amyloid beta (1 to 42) transfected mouse HT22-ARE cells assessed as reversal of increase in antioxidant response element-luciferase activity at 40 uM after 18 hrs by reporter gene assay; type: functional, cell-based
HT-22 [13] = experiment: Neuroprotective activity against in amyloid beta (1 to 42) transfected mouse HT22 cells assessed as reduction in overexpression of the green fluorescent pEGFP-C1 gene at 40 uM after 24 hrs by reporter gene assay; type: functional, cell-based

`CC1(C)CC[C@]2(CO)C(=O)C[C@]3(C)C(=CC[C@@H]4[C@@]5(C)CC[C@H](O[C@@H]6O[C@H](C(=O)O)[C@@H](O)[C@H](O)[C@H]6O)C(C)(C)[C@@H]5CC[C@]43C)[C@@H]2C1` showed an Activity (HT-22 [1]) of 55.5%.

With `CC1(C)CC[C@]2(O)[C@H](O)C[C@]3(C)C(=CC[C@@H]4[C@@]5(C)CC[C@H](O)C(C)(C)[C@@H]5CC[C@]43C)[C@@H]2C1` the Activity (HT-22 [2]) was 61.9%.

`CC1(C)CC[C@]2(CO)[C@H](O)C[C@]3(C)C(=CC[C@@H]4[C@@]5(C)CC[C@H](O)C(C)(C)[C@@H]5CC[C@]43C)[C@@H]2C1` [PRIMULAGENIN] gave an Activity (HT-22 [2]) of 60.5%.

With `CC1(C)CC[C@]2(O)C(=O)C[C@]3(C)C(=CC[C@@H]4[C@@]5(C)CCC(=O)C(C)(C)[C@@H]5CC[C@]43C)[C@@H]2C1` the Activity (HT-22 [1]) was 68.9%.

Work on `COC(=O)CC[C@@]1(C)C(C(C)(C)O)CC[C@]2(C)[C@@H]1CC=C1[C@@H]3C[C@](C)(CO)CC[C@]3(O)C(=O)C[C@]12C` (some centres undefined) yielded an Activity (HT-22 [1]) of 68.9%.

Work on `CC(=O)O[C@H]1CC[C@]2(C)[C@H]3CC=C4[C@@H]5CC(C)(C)CC[C@]5(C(=O)O)CC[C@@]4(C)[C@]3(C)CC[C@H]2C1(C)C` [ACETYL OLEANOLIC ACID] yielded an Activity (HT-22 [2]) of 56.3%.

`CCOC(=O)[C@H]1O[C@@H](O[C@H]2CC[C@]3(C)[C@H]4CC=C5[C@@H]6CC(C)(C)CC[C@]6(O)C(=O)C[C@@]5(C)[C@]4(C)CC[C@H]3C2(C)C)[C@H](O)[C@@H](O)[C@@H]1O` was tested, and the Activity (HT-22 [2]) was 68.9%.

Work on `CC(C)(O)C1C[C@H](O)[C@]2(C)[C@H](CC=C3[C@@H]4C[C@](C)(CO)CC[C@]4(O)C(=O)C[C@]32C)[C@@]1(C)CCC(=O)O` (some centres undefined) yielded an Activity (HT-22 [1]) of 68.9%.

For `COC(=O)CC[C@@]1(C)C(C(C)(C)O)C[C@H](O)[C@]2(C)[C@@H]1CC=C1[C@@H]3CC(C)(C)CC[C@]3(O)C(=O)C[C@]12C` (some centres undefined), the Activity (HT-22 [1]) was 68.9%.

Work on `CC1(C)CC[C@]2(C(=O)O)C(=O)C[C@]3(C)C(=CC[C@@H]4[C@@]5(C)CC[C@H](O[C@@H]6O[C@H](C(=O)O)[C@@H](O)[C@H](O[C@@H]7O[C@H](CO)[C@@H](O)[C@H](O)[C@H]7O[C@@H]7O[C@H](CO)[C@@H](O)[C@H](O)[C@H]7O)[C@H]6O[C@H]6O[C@@H](CO)[C@H](O)[C@@H](O)[C@@H]6O)C(C)(C)[C@@H]5CC[C@]43C)[C@@H]2C1` yielded an Activity (HT-22 [1]) of 61.7%.

In the case of `CC1(C)CCC2C(=O)C[C@]3(C)C(=C2C1)C=C[C@@H]1[C@@]2(C)CC[C@H](O)C(C)(C)C2CC[C@]13C` (some centres undefined), the Activity (HT-22 [3]) is reported as 68.9%.

With `CC1(C)CC[C@]2(O)C(=O)C[C@]3(C)C(=CC[C@@H]4[C@@]5(C)CC[C@H](O)C(C)(C)[C@@H]5CC[C@]43C)[C@@H]2C1` the Activity (HT-22 [2]) was 68.9%.

Compound `COC(=O)CC[C@@]1(C)C(C(C)(C)O)CC[C@]2(C)[C@@H]1CC=C1[C@@H]3C[C@](C)(CO)CC[C@]3(CO)C(=O)C[C@]12C` (some centres undefined) has an Activity (HT-22 [1]) of 68.9%.

For `COC(=O)CC[C@@]1(C)C(C(C)(C)O)C[C@H](O)[C@]2(C)[C@@H]1CC=C1[C@@H]3C[C@](C)(CO)CC[C@]3(O)C(=O)C[C@]12C` (some centres undefined), the Activity (HT-22 [1]) was 68.9%.

With `CC1(C)CC[C@]2(C(=O)O)C(=O)C[C@]3(C)C(=CC[C@@H]4[C@@]5(C)CC[C@H](O[C@@H]6O[C@H](C(=O)O)[C@@H](O)[C@H](O)[C@H]6O)C(C)(C)[C@@H]5CC[C@]43C)[C@@H]2C1` the Activity (HT-22 [1]) was 72%.

Compound `CC(=O)O[C@H]1CC[C@]2(C)[C@H]3C=CC4=C5CC(C)(C)CC[C@]5(C(=O)O)CC[C@@]4(C)[C@]3(C)CC[C@H]2C1(C)C` has an Activity (HT-22 [2]) of 68.9%.

`CC1(C)CC[C@]2(O)C(=O)C[C@]3(C)C(=CC[C@@H]4[C@@]5(C)CC[C@H](O[C@@H]6O[C@H](C(=O)O)[C@@H](O)[C@H](O[C@@H]7O[C@H](CO)[C@@H](O)[C@H](O)[C@H]7O[C@@H]7O[C@H](CO)[C@@H](O)[C@H](O)[C@H]7O)[C@H]6O)C(C)(C)[C@@H]5CC[C@]43C)[C@@H]2C1` showed an Activity (HT-22 [1]) of 68.9%.

For `CO[C@@H]1C=C2[C@@H]3CC(C)(C)CC[C@]3(O)C(=O)C[C@@]2(C)[C@]2(C)CC[C@H]3C(C)(C)C(=O)C=C[C@]3(C)[C@@H]12`, the Activity (HT-22 [4]) was “Non-Toxic”, the Activity (HT-22 [5]) was “Active” and the inhibition [6] was 61.3%. For the same compound, the inhibition [7] was “Active”, the “fold change (FC)” value (HT-22 [8]) was 1.8 and the Activity (HT-22 [9]) was 73.8%. For the same compound, the Activity (BV-2 [10]) was “Non-Toxic”, the Activity (BV-2 [11]) was “Active” and the Activity (HT-22 [12]) was “Active”. The Activity (HT-22 [13]) was “Active”.

With `C=C(C)[C@@H]1C[C@H](O)[C@]2(C)[C@H](CC=C3[C@@H]4C[C@](C)(CO)CC[C@]4(O)C(=O)C[C@]32C)[C@@]1(C)CCC(=O)OC` the Activity (HT-22 [4]) was “Non-Toxic” and the Activity (BV-2 [10]) was “Non-Toxic”.

With `O=c1c(O)c(-c2ccc(O)c(O)c2)oc2cc(O)cc(O)c12` the inhibition [7] was “Active”.

For `CCCCOC(=O)CC[C@]1(C)[C@H]2CC=C3[C@@H]4C[C@](C)(CO)CC[C@]4(O)C(=O)C[C@@]3(C)[C@]2(C)[C@@H](O)C[C@H]1C(C)(C)O`, the Activity (HT-22 [4]) was “Non-Toxic” and the Activity (BV-2 [10]) was “Non-Toxic”.

In the case of `CC1(C)CC[C@]2(O)C(=O)C[C@]3(C)C(=CC[C@@H]4[C@@]5(C)CC[C@H](O[C@@H]6O[C@H](C(=O)O)[C@@H](O)[C@H](O)[C@H]6O)C(C)(C)[C@@H]5CC[C@]43C)[C@@H]2C1`, the Activity (HT-22 [3]) is reported as 68.9%.

For `CC1(C)CC[C@]2(O)C(=O)C[C@]3(C)C(=CC[C@@H]4[C@@]5(C)CC[C@H](O[C@@H]6O[C@H](C(=O)O)[C@@H](O)[C@H](O[C@@H]7O[C@H](CO)[C@@H](O)[C@H](O)[C@H]7O[C@@H]7O[C@H](CO)[C@@H](O)[C@H](O)[C@H]7O)[C@H]6O[C@H]6O[C@@H](CO)[C@H](O)[C@@H](O)[C@@H]6O)C(C)(C)[C@@H]5CC[C@]43C)[C@@H]2C1`, the Activity (HT-22 [3]) was 68.9%.

`CC1(CO)CC[C@]2(O)C(=O)C[C@]3(C)C(=CC[C@@H]4[C@@]5(C)CCC(=O)C(C)(C)[C@@H]5CC[C@]43C)[C@@H]2C1` (some centres undefined) was tested, and the Activity (HT-22 [4]) was “Non-Toxic”, the Activity (HT-22 [5]) was “Active” and the inhibition [6] was 60.6%. The inhibition [7] was “Active”, the “fold change (FC)” value (HT-22 [8]) was 1.81 and the Activity (HT-22 [9]) was 81.2%. The Activity (BV-2 [10]) was “Non-Toxic”, the Activity (BV-2 [11]) was “Active” and the Activity (HT-22 [12]) was “Active”. The Activity (HT-22 [13]) was “Active”.

With `CC1(C)CC[C@]2(O)C(=O)C[C@]3(C)C(=C[C@@H](O)[C@@H]4[C@@]5(C)[C@H](O)CC(=O)C(C)(C)[C@@H]5CC[C@]43C)[C@@H]2C1` the Activity (HT-22 [4]) was “Non-Toxic”, the Activity (HT-22 [5]) was “Active” and the inhibition [6] was 51.1%. For the same compound, the inhibition [7] was “Active”, the “fold change (FC)” value (HT-22 [8]) was 1.42 and the Activity (HT-22 [9]) was 78.1%. For the same compound, the Activity (BV-2 [10]) was “Non-Toxic”, the Activity (BV-2 [11]) was “Active” and the Activity (HT-22 [12]) was “Active”. The Activity (HT-22 [13]) was “Active”.

With `CO[C@@H]1C=C2[C@@H]3CC(C)(C)CC[C@]3(O)C(=O)C[C@@]2(C)[C@]2(C)CC[C@H]3C(C)(C)C(=O)C[C@@H](O)[C@]3(C)[C@@H]12` the Activity (HT-22 [4]) was “Non-Toxic”, the Activity (HT-22 [5]) was “Active” and the inhibition [6] was 51.9%. The inhibition [7] was “Active”, the “fold change (FC)” value (HT-22 [8]) was 1.61 and the Activity (HT-22 [9]) was 77%. For the same compound, the Activity (BV-2 [10]) was “Non-Toxic”, the Activity (BV-2 [11]) was “Active” and the Activity (HT-22 [12]) was “Active”. The Activity (HT-22 [13]) was “Active”.

`CC(C)(O)C1CC[C@]2(C)[C@H](CC=C3[C@@H]4C[C@](C)(CO)CC[C@]4(O)C(=O)C[C@]32C)[C@@]1(C)CCC(=O)O` (some centres undefined) gave an Activity (HT-22 [1]) of 68.9%.

Work on `CC1(C)CC[C@]2(O)C(=O)C[C@]3(C)C(=CC[C@@H]4[C@@]5(C)CC[C@H](O[C@@H]6O[C@H](CO)[C@@H](O)[C@H](O[C@@H]7O[C@H](CO)[C@@H](O)[C@H](O)[C@H]7O[C@@H]7O[C@H](CO)[C@@H](O)[C@H](O)[C@H]7O)[C@H]6O[C@H]6O[C@@H](CO)[C@H](O)[C@@H](O)[C@@H]6O)C(C)(C)[C@@H]5CC[C@]43C)[C@@H]2C1` yielded an Activity (HT-22 [3]) of 68.9%.

In the case of `C=C(C)C1CC[C@]2(C)[C@H](CC=C3[C@@H]4C[C@](C)(CO)CC[C@]4(O)C(=O)C[C@]32C)[C@@]1(C)CCC(=O)O` (some centres undefined), the Activity (HT-22 [1]) is reported as 68.9%.

`CC(=O)O[C@H]1CC[C@@]2(C)C(CC[C@]3(C)[C@@H]2C(=O)C=C2[C@@H]4CC(C)(C)CC[C@]4(C)CC[C@]23C)C1(C)C` (some centres undefined) was tested, and the Activity (HT-22 [3]) was 68.9%.

In the case of `CC1(C)CC[C@]2(C(=O)O)CC[C@]3(C)C(=CC[C@@H]4[C@@]5(C)CC[C@H](O)C(C)(C)C5CC[C@]43C)[C@@H]2C1` (some centres undefined), the Activity (HT-22 [3]) is reported as 58.6%.
